Laboratory results from ChEMBL document CHEMBL4673293, “Trypanocidal activity of new 1,6-diphenyl-1H-pyrazolo[3,4-b]pyridine derivatives: Synthesis, in vitro and in vivo studies” (Bioorg Med Chem, 2021).
The source made the active and inactive calls. No cut-off for these calls is given here.

Legend:
[1] = test system: Trypanosoma cruzi; experiment: (§1) Antitrypanosomal activity against intracellular amastigote form of Trypanosoma cruzi Tulahuen strain infected in monkey LLC-MK2 cells assessed as reduction in parasite viability incubated for 72 hrs by beta-galactosidase reporter gene assay; format: functional, organism-based
[2] = Cytotoxicity against monkey LLC-MK2 cells assessed as reduction in cell viability incubated for 72 hrs by MTT assay; format: cell-based, Macaca mulatta; settings: rhesus monkey
[3] = Selectivity index, ratio of CC50 for monkey LLC-MK2 cells to IC50 for antitrypanosomal activity against intracellular amastigote form of Trypanosoma cruzi Tulahuen strain infected in monkey LLC-MK2 cells; format: toxicity, cell-based; settings: read-out: Ratio CC50/IC50
[4] = Hepatotoxicity in BALB/c mouse infected with blood trypomastigote form of Trypanosoma cruzi strain Y assessed as AST level in plasma at 25 mg/kg, po administered via gavage daily for 15 days starting from 2 days post-infection and measured on 16th day post-infection; format: toxicity, organism-based; settings: in vivo, 360 h, time 15 day
[5] = Cardiac toxicity in BALB/c mouse infected with blood trypomastigote form of Trypanosoma cruzi strain Y assessed as CK-MB level in plasma at 25 mg/kg, po administered via gavage daily for 15 days starting from 2 days post-infection and measured on 16th day post-infection; format: organism-based; settings: in vivo, 360 h, time 15 day
[6] = Reduction in inflammatory cell infiltration in heart of BALB/c mouse infected with blood trypomastigote form of Trypanosoma cruzi strain Y at 25 mg/kg, po administered via gavage daily for 15 days starting from 2 days post-infection and measured on 16th day post-infection by haematoxylin and eosin staining based microscopic analysis relative to control; format: functional; settings: 360 h, time 15 day
[7] = test system: Trypanosoma cruzi; experiment: (§2) Antitrypanosomal activity against blood trypomastigote form of Trypanosoma cruzi strain Y infected in BALB/c mouse assessed as reduction in parasitemia at 25 mg/kg, po administered via gavage daily for 15 days starting from 2 days post-infection and measured on 7th day post-infection by optical microscopy relative to control; format: functional; settings: 360 h, time 15 day
[8] = Renal toxicity in BALB/c mouse infected with blood trypomastigote form of Trypanosoma cruzi strain Y assessed as creatinine level in plasma at 25 mg/kg, po administered via gavage daily for 15 days starting from 2 days post-infection and measured on 16th day post-infection; format: organism-based; settings: in vivo, 360 h, time 15 day
[9] = Hepatotoxicity in BALB/c mouse infected with blood trypomastigote form of Trypanosoma cruzi strain Y assessed as ALT level in plasma at 25 mg/kg, po administered via gavage daily for 15 days starting from 2 days post-infection and measured on 16th day post-infection; format: toxicity, organism-based; settings: in vivo, 360 h, time 15 day
[10] = test system: Trypanosoma cruzi; experiment: as §2, with “13th” for “7th”; format: functional; settings: 360 h, time 15 day
[11] = test system: Trypanosoma cruzi; experiment: as §2, with “parasite DNA load in host heart” for “parasitemia”, “16th” for “7th”, “qPCR analysis” for “optical microscopy”; format: functional; settings: for Activity: time 15.0 day
[12] = test system: Trypanosoma cruzi; experiment: Antitrypanosomal activity against blood trypomastigote form of Trypanosoma cruzi strain Y infected in BALB/c mouse assessed as reduction in amastigote nest in host heart at 25 mg/kg, po administered via gavage daily for 15 days starting from 2 days post-infection and measured on 16th day post-infection by haematoxylin and eosin staining based microscopic analysis; format: functional; settings: for inhibition in vivo at 25 mg/kg: 360 h, time 15 day
[13] = test system: Trypanosoma cruzi; experiment: as §1, with “Potency index, ratio of benznidazole IC50 to test compound IC50 for antitrypanosomal” for “Antitrypanosomal”; format: functional
[14] = Trypanosoma cruzi, Tulahuen, LLC-MK2, 72 h, read-out: IC50

Structure (SMILES) | IC50 [1, 14] | CC50 at 72 h [2] | selectivity ratio [3] | also measured
COc1ccc(/C=N/NC(=O)c2cc(-c3ccccc3)nc3c2c(C)nn3-c2ccccc2)cc1O | 21 µM | 53 µM | 2.52 | 
COc1ccc(C2OC(c3cc(-c4ccccc4)nc4c3c(C)nn4-c3ccccc3)=NN2C(C)=O)cc1OC(C)=O (stereo not drawn) |  |  |  | IC50 ([1]; llc-mk2): Nd(Insoluble)
Cc1nn(-c2ccccc2)c2nc(-c3ccccc3)cc(C(=O)N/N=C/c3ccc(O)c(O)c3)c12 | 22.9 µM | 71.2 µM | 3.11 | 
CC(=O)Oc1ccc(C2OC(c3cc(-c4ccccc4)nc4c3c(C)nn4-c3ccccc3)=NN2C(C)=O)cc1OC(C)=O (stereo not drawn) | 33.9 µM | 54.5 µM | 1.6 | 
CC(=O)Oc1ccc(C2OC(c3cc(-c4ccccc4)nc4c3c(C)nn4-c3ccccc3)=NN2C(C)=O)cc1 (stereo not drawn) | 22.6 µM | 64.8 µM | 2.86 | 
Cc1nn(-c2ccccc2)c2nc(-c3ccccc3)cc(C(=O)N/N=C/c3ccc(O)cc3)c12 | 21.4 µM | > 250 µM | > 250 | 
Cc1nn(-c2ccccc2)c2nc(-c3ccccc3)cc(C(=O)N/N=C/c3cccc(O)c3)c12 | 23.2 µM | 69.6 µM | 3 | 

Second part, led by results:

IC50 [1, 14] | Structure (SMILES) | CC50 at 72 h [2] | selectivity ratio [3] | also measured
10.5 µM | CC(=O)N1N=C(c2cc(-c3ccccc3)nc3c2c(C)nn3-c2ccccc2)OC1c1cccc(O)c1 (stereo not drawn) | 17.2 µM | 1.63 | 
16.2 µM | CC(=O)Oc1cccc(C2OC(c3cc(-c4ccccc4)nc4c3c(C)nn4-c3ccccc3)=NN2C(C)=O)c1 (stereo not drawn) | > 100 µM | > 6.15 | 
17.7 µM | CC(=O)N1N=C(c2cc(-c3ccccc3)nc3c2c(C)nn3-c2ccccc2)OC1c1ccc(O)cc1 (stereo not drawn) | 34.4 µM | 1.94 | 
1.11 µM | CC(=O)Oc1ccccc1C1OC(c2cc(-c3ccccc3)nc3c2c(C)nn3-c2ccccc2)=NN1C(C)=O (stereo not drawn) | > 100 µM | > 90.1 | Activity [4]: Non-Toxic; Activity [5]: Non-Toxic; inhibition in vivo at 25 mg/kg [6]: 51%; inhibition in vivo at 25 mg/kg [7]: 46.1%; Activity [8]: Non-Toxic; Activity [9]: Non-Toxic; inhibition in vivo at 25 mg/kg [10]: 53%; Activity [11]: inactive; inhibition in vivo at 25 mg/kg [12]: 57%
3.98 µM | O=C(Cn1ccnc1[N+](=O)[O-])NCc1ccccc1 [BENZNIDAZOLE] | > 200 µM | > 50.2 | Activity [4]: Non-Toxic; Activity [5]: Non-Toxic; inhibition in vivo at 25 mg/kg [6]: 76%; Activity [8]: Non-Toxic; Activity [9]: Non-Toxic; inhibition in vivo at 25 mg/kg ([11]; 360 h, time 15 day): 99%; inhibition in vivo at 25 mg/kg [12]: 100%
0.85 µM | Cc1nn(-c2ccccc2)c2nc(-c3ccccc3)cc(C(=O)N/N=C/c3ccccc3O)c12 | > 200 µM | > 235 | Activity [4]: Non-Toxic; Activity [5]: Toxic; inhibition in vivo at 25 mg/kg [6]: 62.5%; inhibition in vivo at 25 mg/kg [7]: 44.7%; Activity [8]: Non-Toxic; Activity [9]: Non-Toxic; inhibition in vivo at 25 mg/kg [10]: 14.5%; Ratio IC50 [13]: 4; Activity [11]: inactive; Activity ([12]; time 15.0 day): inactive
